Results as given in patent US9259426B2, “4,6-di- and 2,4,6-trisubstituted quinazoline derivatives useful for treating viral infections” (Gilead Sciences, Inc., priority 2006, dated 2016).

How the values were obtained:
[1] = CC50 assay (CellTiter-Glo) in Huh-7 HCV replicon cells; type: cell-based, human; conditions: human, 3 days incubation, CellTiter-Glo luminescence, read-out: CC50 (50% cytostatic concentration)
Protocol: (§1) The anti HCV activity of the quinazoline derivatives of this invention was tested in a human hepatoma Huh-7 cell line harbouring a HCV replicon. The assay comprised the following steps:
(§2) Step 1: compound preparation and serial dilution
(§3) • 1. for water soluble quinazoline derivatives, a volume of 500 μL of solution in cell media (DMEM, 10% FBS, P/S, L-Glutamine) was prepared with a concentration being twice the concentration of the starting final serial dilution concentration. A volume of 150 μL of the solution was added to the pre-specified wells in column 1 of a 96-well cell culture plate (PerkinElmer, white plate, cat. #6005181, for EC50 assay; black plate, cat. #6005182 for CC50 assay). The rest of the plate, columns 2-12, was filled with 100 μL of cell media. The plate was then placed on a Precision 2000 Workstation to start the serial dilution. Compounds were diluted three times each step from column 1 to column 10. Column 11 was used as a blank control (no compound added). • 2. for quinazoline derivatives requiring DMSO to dissolve, serial dilution is performed in 50% DMSO in a 384-well plate. A solution containing a compound at 100-fold concentration of the starting final serial dilution concentration was prepared in 50% DMSO and added to the pre-specified wells in column 1 of a polypropylene 384-well plate. The plate was then placed on a Precision 2000 Workstation to start the serial dilution. After the serial dilution, a volume of 2 μL of the solution was transferred from the 384-well plate to a 96-well cell culture plate containing 100 μL of cell media on a Biomek FX Workstation. The DMSO concentration in the final assay condition was 0.5% after cells are added to the plate and the total volume in each well is brought to 200 μL. Step 2: to each well of the serial dilution plate prepared above, 100 μL of cell media containing 6000 suspended Huh-7 HCV replicon cells was added with a Multidrop workstation. The plates were incubated for 3 days at 37° C. with 5% CO2. Step 3: Detection: • a) for the EC50 assay, the media in a 96-well cell culture plate was aspirated with a Biotek EL405 plate-washer. A volume of 200 μL of a solution containing a 1:1 mixture of cell-lysis buffer (Promega, Luciferase Cell Culture Lysis 5× Reagent, cat. #E1531) and luciferase substrate solution (Promega, Luciferase Assay, cat.# E4550) was added to each well of the plate with Multidrop. The plate was incubated for 30 minutes at room temperature before the luminescence signal was measured with a TopCount plate-reader. • b) for the CC50 assay, a volume of 100 μL of pre-mixed CeliTiter-Glo (Promega, cat.# G7572) solution is added directly to the cell culture in each well of the plate and the luminescence signal is measured with a TopCount plate-reader after 10 minutes of incubation at room temperature.
(§4) Results in the table below are expressed by the following data: • the 50% cytostatic concentration (CC50), i.e. the concentration that results in 50% inhibition of cell growth, and • the 50% effective concentration (EC50), i.e. the concentration that protects 50% of the cell monolayer from virus-induced cytopathic effect.

[2] = test system: HCV replicon in human hepatoma Huh-7 cell line; experiment: Anti-HCV replicon assay (EC50, luciferase readout); type: cell-based; conditions: Hepatitis C virus, Huh-7, 72 h, read-out: EC50 (50% effective concentration)
Protocol: as §1, §2, §3, §4

[3] = test system: Huh-7 HCV replicon cells; experiment: CC50 assay (CellTiter-Glo) in Huh-7 HCV replicon cells; type: cell-based, human; conditions: 3 days incubation, CellTiter-Glo luminescence, read-out: CC50 (50% cytostatic concentration)
Protocol: as §1, §2, §3, §4

| SMILES | CC50 at 3 days [1] | EC50 [2] | CC50 [3] |
| --- | --- | --- | --- |
| COc1ccc(-c2ccc3nc(N)nc(N4CCOCC4)c3c2)cc1OC [Example 14, 2-amino-6-(3,4-dimethoxyphenyl)-4-(N-morpholino)quinazoline] | < 10 µM | < 300 nM | – |
| COc1ccc(-c2ccc3nc(N)nc(Nc4cccc(Br)c4)c3c2)cc1OC [Example 16, 2-amino-6-(3,4-dimethoxyphenyl)-4-[N-(3-bromo)-anilino]-quinazoline] | > 20 µM | < 300 nM | – |
| Nc1nc(N2CCOCC2)c2cc(-c3ccc(Cl)cc3)ccc2n1 [Example 27, 2-amino-6-(4-chlorophenyl)-4-(N-morpholino)-quinazoline] | 10 to 20 µM | 300 to 1000 nM | – |
| Nc1nc(N2CCOCC2)c2cc(-c3ccc(F)cc3)ccc2n1 [Example 28, 2-amino-6-(4-fluorophenyl)-4-(N-morpholino)-quinazoline] | < 10 µM | 300 to 1000 nM | – |
| CC(=O)Nc1ccc(-c2ccc3nc(N)nc(N4CCOCC4)c3c2)cc1 [Example 30, 2-amino-6-(4-acetamidophenyl)-4-(N-morpholino)quinazoline] | 10 to 20 µM | 1000 to 10000 nM | – |
| CC(=O)Nc1ccc(-c2ccc3nc(N)nc(N4CCCCC4)c3c2)cc1 [Example 31, 2-amino-6-(4-acetamidophenyl)-4-(N-piperidino)quinazoline] | 10 to 20 µM | 1000 to 10000 nM | – |
| CC(=O)Nc1ccc(-c2ccc3nc(N)nc(N4CCN(C(C)=O)CC4)c3c2)cc1 [Example 32, 2-amino-6-(4-acetamidophenyl)-4-(N-acetylpiperazino)quinazoline] | > 20 µM | 1000 to 10000 nM | – |
| CC(=O)Nc1ccc(-c2ccc3nc(N)nc(N4CCN(C)CC4)c3c2)cc1 [Example 34, 2-amino-6-(4-acetamidophenyl)-4-(N-methylpiperazino)quinazoline] | 10 to 20 µM | 1000 to 10000 nM | – |
| Fc1ccc(-c2ccc3ncnc(N4CCOCC4)c3c2)cc1 [Example 37, 6-(4-fluorophenyl)-4-(N-morpholino)-quinazoline] | > 20 µM | 1000 to 10000 nM | – |
| Nc1ncnc2ccc(-c3ccc(F)cc3)cc12 [Example 39, 4-amino-6-(4-fluorophenyl)-quinazoline] | > 20 µM | 1000 to 10000 nM | – |
| CCCNc1ncnc2ccc(-c3ccc(F)cc3)cc12 [Example 43, 4-(N-propylamino)-6-(4-fluorophenyl)-quinazoline] | > 20 µM | 1000 to 10000 nM | – |
| CN(C)c1ncnc2ccc(-c3ccc(F)cc3)cc12 [Example 45, 4-(N,N-dimethylamino)-6-(4-fluorophenyl)-quinazoline] | > 20 µM | 1000 to 10000 nM | – |
| Fc1ccc(-c2ccc3ncnc(NC4CC4)c3c2)cc1 [Example 47, 4-(N-cyclopropylamino)-6-(4-fluorophenyl)-quinazoline] | > 20 µM | 1000 to 10000 nM | – |
| Nc1nc(Nc2ccccc2)c2cc(-c3ccc(F)cc3)ccc2n1 [Example 48, 2-amino-6-(4-fluorophenyl)-4-(N-anilino)-quinazoline] | < 10 µM | 300 to 1000 nM | – |
| NS(=O)(=O)c1ccc(CNc2nc(NCC(F)(F)F)c3cc(-c4ccc(C(=O)NC5CC5)cc4)ccc3n2)cc1 [Example 51, N-Cyclopropyl-4-[2-(4-sulfamoyl-benzylamino)-4-(2,2,2-trifluoroethylamino)-quinazolin-6-yl]-benzamide] | > 20 µM | < 300 nM | – |
| NS(=O)(=O)c1ccc(CNc2nc(NCC(F)(F)F)c3cc(-c4ccc(F)cc4)ccc3n2)cc1 [Example 52, 4-{[6-(4-Fluoro-phenyl)-4-(2,2,2-trifluoro-ethylamino)quinazolin-2-ylamino]-methyl}-benzenesulfonamide] | < 10 µM | < 300 nM | – |
| Cn1ccc(Nc2nc(NC3CC3)c3cc(-c4ccc(F)cc4)ccc3n2)n1 [Example 54, N4-cyclopropyl-6-(4-fluoro-phenyl)-N2-(1-methyl-1H-pyrazol-3-yl)-quinazoline-2,4-diamine] | < 10 µM | < 300 nM | – |
| COCCNc1nc(N)nc2ccc(-c3ccc(C(=O)NC4CC4)cc3)cc12 [Example 56, 4-[2-Amino-4-(2-methoxy-ethylamino)-quinazolin-6-yl]-N cyclopropyl-benzamide] | – | – | > 20 µM |
